Results: ChEMBL document CHEMBL5728323, “1,4,5-substituted 1,2,3-triazole analogues as antagonists of the pregnane X receptor” (2021)

Tests used:
[1] = Briefly, various concentrations (1-to-3 series dilutions for 10 concentration levels from 40 μM with 0.5% final DMSO concentration) of hPXR agonist rifampicin, various concentrations of tested chemicals alone or combined with 5 μM of rifampicin, were added to the wells of white 384-well tissue culture-treated plates with 5,000 cells in 25 μl of phenol red-free DMEM supplemented with 5% charcoal/dextran-treated FBS and incubated for 24 h at 37° C. before luciferase assay using Steadylite HTS (PerkinElmer Life Sciences).; assay type: cell-based; settings: HepG2

**Q.** Which IC50 does the source give for COc1ccc(OC)c(-c2nc(C)c(C(=O)c3ccc(C(C)(C)C)cc3)n2C)c1 here?
**A.** 790 nM

**Q.** What about the IC50 [1] of the same compound?
**A.** 3100 nM
